Results on two compounds are retold here after patent publication US20240317792A1, “CYCLIC DINUCLEOTIDE METAL COMPOUND, AND PREPARATION AND APPLICATION THEREOF” (HANGZHOU XINGAO BIOTECHNOLOGY CO., LTD., priority 2022, published 2024).

The test system of data set [1] is mouse colorectal cancer cell line CT26. The method, then: Experimental animals: BALB/c ordinary mice, male, weighing 20-22 grams, 7-8 weeks old, at SPF level, purchased from Shanghai SLAC Laboratory Animal Co. Ltd.
Tumour cell line herein was the mouse colorectal cancer cell line CT26 purchased from Chinese Academy of Sciences Cell Bank.
Establishment and intervention of tumor model mice: cells were subjected to culture and subculture, collected in the logarithmic phase and prepared as 1.0×10^7/mL of cell suspension. 0.2 mL of the cell suspension was injected armpits of forelegs of the mice (with a cell number of 2.0×10^6), and tumor transplantation was successful in about 7 days. The mice were randomly divided into 5 groups (10 mice in each group). […] The mice were subjected to administration by intraperitoneal injection with the volume of 200 μL per mice once every 2 days for 20 days. After 20 days, the mice were weighed and their blood was collected. Then the mice were killed, and the tumor were weighed. The formula of inhibitory rate of tumor was represented as inhibitory rate of tumor=[1-average tumor weight of experimental group/average tumor weight of the negative control group]×100%.

For the next data set, the system named is IRI mice (male SD mice). Briefly: Cerebral ischemia-reperfusion injury (IRI) model, TTC dyeing. The data set is classed as in vivo. To be noted: 2 h ischemia, 24 h reperfusion; caudal vein injection 5 mg/kg (Edaravone 6 mg/kg) after 30 min ischemia. As to the method: Experimental animals: healthy male mice, weighing 280-300 grams, purchased from Shanghai SLAC Laboratory Animal Co. Ltd, with quality certificate No. (SCXK (Shanghai) 2007-0005), and kept in clean animal houses.
Establishment of a mouse cerebral ischemia model of mice and experimental method: 280-300 grams of male […] mice were selected for experiments. The male SD mice were subjected to fasting without water deprivation for 12 h before operation followed by weighing, numbering and random grouping. The male SD mice were anesthetized by intraperitoneal injection of 10 wt. % chloral hydrate at a dosage of 0.3 mL/100 g. After the male SD mice had no pain reflexes, they were subjected to neck skin preparation followed by being fixed on a dissecting table in supine position. After neck skins were disinfected with sterilized cotton balls, about 1 cm of the neck skins were cut in mid-cervical to expose subcutaneous tissues, and subcutaneous fat and the fascia were bluntly plucked with curved tweezers to expose neck muscle groups. The common carotid arteries and their upwardly internal and external carotid branches were visualized by opening the digastric muscle. The external, internal, and common carotid arteries were carefully dissected, and a thin wire was threaded under each of the three arteries, and homemade plastic spacers were placed under the common carotid arteries. The external carotid arteries and proximal ends of the common carotid arteries were ligated. After the internal common carotid arteries were clamped by arterial clips, the common carotid arteries were stuck into with homemade curved hooks followed by picking up and leading in monofilaments. The spacers were removed, and the monofilaments were gently pushed into the internal common carotid arteries and craniums. […] At this time, blood supplies of the middle cerebral arteries from the anterior cerebral arteries were blocked. Thin wires under the internal carotid arteries were ligated to secure the monofilaments to prevent the monofilaments from retreating. Excess thin wires were cut, penicillin was applied to wounds to prevent infection. The male SD mice were sutured and placed under a warm lamp to keep warm. Timing was performed when blood flows of the middle cerebral arteries were blocked by the monofilaments. After 2 hours, the monofilaments were gently pulled out and the black marks were seen, then reperfusion can be achieved.
Triphenyl tetrazolium chloride (TTC) dyeing: After being injured by 2 h cerebral ischemia and 24 h reperfusion, the male SD mice were anesthetized with 0.3 mL/100 g dosage of 10 wt. % of chloral hydrate by intraperitoneal injection and subjected to abdominal aorta bleeding to reduce influence of blood in brains. Then whole heads of the male SD mice were removed immediately after decapitating, and washed with normal saline followed by being promptly put into a −20° C. refrigerator to freeze for 20 min. Frozen brains were collected and subjected to coronal sections, each 2 mm of thickness, by a blade. Then the coronal sections were subjected to dark dyeing in a 2 wt. % of TTC solution for 20 min and fixing in a 4 wt. % of polyformaldehyde solution for 6 h followed by photographing. Then, Photoshop software was used to define area and calculate, and a formula was represented as a percentage of cerebral ischemic area=a total area of white area/a total area of ischemic hemisphere×100%.
Drug preparation and experimental grouping: Edaravone was used as a positive control drug, and an Edaravone injection was 30 mg/20 mL. A single dosage for each of the male SD mice was 0.4 mL/100 g, that is, 6 mg/kg. The cyclic dinucleotide metal compounds prepared in Examples 1-5 were prepared into […] injection drugs with the normal saline. Each of the male SD mice was subjected to caudal vein injection with 0.4 mL/100 g dosage of drugs, that is, 5 mg/kg. The male SD mice were divided into 8 groups (10 mice in each group). […]

[2] abbreviates: oxaliplatin 5 mg/kg alone or + 10 mg/kg compound, intraperitoneal once every 2 days, 20 days.
Setting [3] is: peripheral blood after 20 days administration.
Setting [4] is: serum after 20 days administration.

As for `O=C1[O][Pt]2([NH][C@@H]3CCCC[C@H]3[NH]2)[O]C1=O` [oxaliplatin], the “Inhibitory rate (of tumor)” value in data set [1] (CT26, oxaliplatin 5 mg/kg alone or + 10 mg/kg compound, 20 days) is 78%. Moreover, in data set [1] (setting [2]), the Survival rate was 50% and the Weight loss was 40%. In data set [1] (setting [3]), the Hemoglobin turned out to be 88 ± 9 g/L, the Platelets is 368 ± 56 × 10^3/μL, the Red blood cells is on record as 4.51 ± 0.65 × 10^6/μL and the White blood cells is 3.87 ± 0.08 × 10^3/μL. Moreover, in data set [1] (setting [4]), the ALT turned out to be 118.25 ± 7.84 U/L and the Creatinine is 80.33 ± 4.65 µmol/L.
As for `CC1=NN(c2ccccc2)C(=O)C1` [Edaravone, reference compound], the “Average value of percentage of cerebral ischemic area” value with IRI mice (male SD mice) came out at 28.97%.
